Reference: PubChem BioAssay AID1918941 (Molecular Pharmacology Branch, DTP, NCI, 2023)
“And” between values parts separate entries of the source, which are not always exact repeats. Identical values can stand only once.

System: SW 1271 complex spheroids, viability
Test: Anticancer human tumor SW 1271 cell line growth inhibition [LSD1];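 also: spheroids exposed to agents for 7 days before luminescence read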;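 as to viability, T/C: 100% = DMSO vehicle control viability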
Details: for viability, T/C: stronger effect = lower value; active = viability on the fitted dose curve at most 10% of control; inactive = the rest
How it was run: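 Multicellular complex spheroids of tumor cells with human endothelial cells (HUVEC) and mesenchymal stem cells; the LSD1 inhibitor iadademstat was combined with standard-of-care or investigational agents. Top concentration at or near clinical Cmax, half-log dilutions; final DMSO ≤0.25%.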

[1] = curve of first compound, second compound 0.1 µM
[2] = curve of first compound, second compound 0.316 µM
[3] = curve of first compound, second compound 1 µM
[4] = curve of first compound, second compound 3.16 µM
[5] = curve of first compound, second compound 10 µM
[6] = second compound 0.1 µM, first compound 0.0316 µM
[7] = second compound 0.1 µM, first compound 0.1 µM
[8] = second compound 0.1 µM, first compound 0.316 µM
[9] = second compound 0.1 µM, first compound 1 µM
[10] = second compound 0.1 µM, first compound 3.16 µM
[11] = second compound 0.1 µM, first compound 10 µM
[12] = second compound 0.316 µM, first compound 0.0316 µM
[13] = second compound 0.316 µM, first compound 0.1 µM
[14] = second compound 0.316 µM, first compound 0.316 µM
[15] = second compound 0.316 µM, first compound 1 µM
[16] = second compound 0.316 µM, first compound 3.16 µM
[17] = second compound 0.316 µM, first compound 10 µM
[18] = second compound 1 µM, first compound 0.0316 µM
[19] = second compound 1 µM, first compound 0.1 µM
[20] = second compound 1 µM, first compound 0.316 µM
[21] = second compound 1 µM, first compound 1 µM
[22] = second compound 1 µM, first compound 3.16 µM
[23] = second compound 1 µM, first compound 10 µM
[24] = second compound 3.16 µM, first compound 0.0316 µM
[25] = second compound 3.16 µM, first compound 0.1 µM
[26] = second compound 3.16 µM, first compound 0.316 µM
[27] = second compound 3.16 µM, first compound 1 µM
[28] = second compound 3.16 µM, first compound 3.16 µM
[29] = second compound 3.16 µM, first compound 10 µM
[30] = second compound 10 µM, first compound 0.0316 µM
[31] = second compound 10 µM, first compound 0.1 µM
[32] = second compound 10 µM, first compound 0.316 µM
[33] = second compound 10 µM, first compound 1 µM
[34] = second compound 10 µM, first compound 3.16 µM
[35] = second compound 10 µM, first compound 10 µM

COc1ccc([C@@H](O)c2cc(-c3ncnc4cc(N5CCOCC5)ccc34)c(F)cc2Cl)nn1 + NC1CC1c1ccc(-c2cccc(O)c2)cc1
664 nM: IC50 [3]
463 nM: IC50 [2]
351 nM: IC50 [5]
355 nM: IC50 [4]
inactive: viability, T/C [6] 78.6% | viability, T/C [7] 79.9% | viability, T/C [8] 55% | viability, T/C [9] 44.4% | viability, T/C [10] 31% | viability, T/C [11] 21.9% | viability, T/C [12] 76.4% | viability, T/C [13] 76.8% | viability, T/C [14] 52.2% | viability, T/C [15] 38% | viability, T/C [16] 37.3% | viability, T/C [17] 22.1% | viability, T/C [18] 72.9% | viability, T/C [19] 76.6% | viability, T/C [20] 60.3% | viability, T/C [21] 43.7% | viability, T/C [22] 31.7% | viability, T/C [23] 26.4% | viability, T/C [24] 69.5% | viability, T/C [25] 64.8% | viability, T/C [26] 49.2% | viability, T/C [27] 38.5% | viability, T/C [28] 30.5% | viability, T/C [29] 19.7% | viability, T/C [30] 60.5% | viability, T/C [31] 58.4% | viability, T/C [32] 50.3% | viability, T/C [33] 40.2% | viability, T/C [34] 27.5% | viability, T/C [35] 20.5%
616 nM: IC50 [1]

Nc1ccccc1NC(=O)c1ccc(CNC(=O)OCc2cccnc2)cc1
156 nM and 127 nM: IC50 (curve of compound)
inactive: viability, T/C (compound 0.00949 µM) 90.7% and 84.4% | viability, T/C (compound 0.03 µM) 83.4% and 69.1% | viability, T/C (compound 0.0949 µM) 61.4% and 59.8% | viability, T/C (compound 0.3 µM) 35.6% and 29.2% | viability, T/C (compound 0.949 µM) 10.2% and 7.11%
active: viability, T/C (compound 3 µM) 6.48% and 7.88%

O=C(c1cc(Cc2n[nH]c(=O)c3ccccc23)ccc1F)N1CCN(C(=O)C2CC2)CC1 + NC1CC1c1ccc(-c2cccc(O)c2)cc1
8950 nM: IC50 [1]
5660 nM: IC50 [2]
6290 nM: IC50 [3]
inactive: viability, T/C [6] 78.1% | viability, T/C [7] 87% | viability, T/C [8] 92.7% | viability, T/C [9] 72.9% | viability, T/C [10] 61.4% | viability, T/C [11] 48.2% | viability, T/C [12] 84.5% | viability, T/C [13] 76.1% | viability, T/C [14] 78% | viability, T/C [15] 67.5% | viability, T/C [16] 54.9% | viability, T/C [17] 44.1% | viability, T/C [18] 81.4% | viability, T/C [19] 74.4% | viability, T/C [20] 70% | viability, T/C [21] 65.1% | viability, T/C [22] 56.8% | viability, T/C [23] 45.4% | viability, T/C [24] 72.1% | viability, T/C [25] 63.4% | viability, T/C [26] 68.3% | viability, T/C [27] 58.4% | viability, T/C [28] 52.9% | viability, T/C [29] 38.9% | viability, T/C [30] 66.9% | viability, T/C [31] 66.8% | viability, T/C [32] 63% | viability, T/C [33] 57.9% | viability, T/C [34] 52.7% | viability, T/C [35] 51.3%
> 10000 nM: IC50 [5]
3740 nM: IC50 [4]

NS(=O)(=O)OCC1CC(n2ccc3c(NC4CCc5ccccc54)ncnc32)CC1O (centres undefined)
inactive: viability, T/C (compound 0.00949 µM) 159% and 149% | viability, T/C (compound 0.03 µM) 127% and 122% | viability, T/C (compound 0.0949 µM) 83.5% and 85.6% | viability, T/C (compound 0.3 µM) 89.7% and 67.7% | viability, T/C (compound 0.949 µM) 73.1% and 74.3% | viability, T/C (compound 3 µM) 82.1% and 73.2%
> 3000 nM: IC50 (curve of compound)

O=C(C=Cc1cccc(S(=O)(=O)Nc2ccccc2)c1)NO + NC1CC1c1ccc(-c2cccc(O)c2)cc1
98.2 nM: IC50 [1]
active: viability, T/C (second compound 0.1 µM, first compound 0.949 µM) 7.5% | viability, T/C (second compound 0.1 µM, first compound 3 µM) 0.27% | viability, T/C (second compound 0.316 µM, first compound 0.949 µM) 6.95% | viability, T/C (second compound 0.316 µM, first compound 3 µM) 0.16% | viability, T/C (second compound 1 µM, first compound 0.949 µM) 6.33% | viability, T/C (second compound 1 µM, first compound 3 µM) 0.7% | viability, T/C (second compound 3.16 µM, first compound 0.949 µM) 6.89% | viability, T/C (second compound 3.16 µM, first compound 3 µM) 0.2% | viability, T/C (second compound 10 µM, first compound 0.949 µM) 5.74% | viability, T/C (second compound 10 µM, first compound 3 µM) 0.36%
68.1 nM: IC50 [5]
62.9 nM: IC50 [2]
inactive: viability, T/C (second compound 0.1 µM, first compound 0.00949 µM) 74.5% | viability, T/C (second compound 0.1 µM, first compound 0.03 µM) 69% | viability, T/C (second compound 0.1 µM, first compound 0.0949 µM) 51.8% | viability, T/C (second compound 0.1 µM, first compound 0.3 µM) 17.9% | viability, T/C (second compound 0.316 µM, first compound 0.00949 µM) 70.3% | viability, T/C (second compound 0.316 µM, first compound 0.03 µM) 61.8% | viability, T/C (second compound 0.316 µM, first compound 0.0949 µM) 44% | viability, T/C (second compound 0.316 µM, first compound 0.3 µM) 17.4% | viability, T/C (second compound 1 µM, first compound 0.00949 µM) 75.7% | viability, T/C (second compound 1 µM, first compound 0.03 µM) 60.1% | viability, T/C (second compound 1 µM, first compound 0.0949 µM) 41.8% | viability, T/C (second compound 1 µM, first compound 0.3 µM) 14.3% | viability, T/C (second compound 3.16 µM, first compound 0.00949 µM) 72.7% | viability, T/C (second compound 3.16 µM, first compound 0.03 µM) 58.4% | viability, T/C (second compound 3.16 µM, first compound 0.0949 µM) 45.6% | viability, T/C (second compound 3.16 µM, first compound 0.3 µM) 14.1% | viability, T/C (second compound 10 µM, first compound 0.00949 µM) 67.1% | viability, T/C (second compound 10 µM, first compound 0.03 µM) 59.9% | viability, T/C (second compound 10 µM, first compound 0.0949 µM) 46.5% | viability, T/C (second compound 10 µM, first compound 0.3 µM) 17.6%
60 nM: IC50 [4]
55.3 nM: IC50 [3]

CC1(C)CCC(CN2CCN(c3ccc(C(=O)NS(=O)(=O)c4ccc(NCC5CCOCC5)c([N+](=O)[O-])c4)c(Oc4cnc5[nH]ccc5c4)c3)CC2)=C(c2ccc(Cl)cc2)C1 + NC1CCC(NC2CC2c2ccccc2)CC1
active: viability, T/C [11] 0.57% | viability, T/C [17] 0.63% | viability, T/C [23] 0.38% | viability, T/C [29] 0.42% | viability, T/C [35] 0.66%
inactive: viability, T/C [6] 103% | viability, T/C [7] 95.6% | viability, T/C [8] 94.6% | viability, T/C [9] 92.2% | viability, T/C [10] 26.9% | viability, T/C [12] 100% | viability, T/C [13] 100% | viability, T/C [14] 106% | viability, T/C [15] 96.6% | viability, T/C [16] 21.6% | viability, T/C [18] 89.5% | viability, T/C [19] 90.5% | viability, T/C [20] 99.7% | viability, T/C [21] 103% | viability, T/C [22] 21.9% | viability, T/C [24] 96.4% | viability, T/C [25] 101% | viability, T/C [26] 99% | viability, T/C [27] 97.2% | viability, T/C [28] 26.9% | viability, T/C [30] 92.5% | viability, T/C [31] 102% | viability, T/C [32] 97.8% | viability, T/C [33] 95.4% | viability, T/C [34] 34.3%
2040 nM: IC50 [3]
2170 nM: IC50 [4]
2350 nM: IC50 [5]
2100 nM: IC50 [1]
2050 nM: IC50 [2]
